Experimental data as given in patent US4738986A, “N-(3-phenoxycinnamyl)acetohydroxamic acid” (Burroughs Wellcome Co., priority 1985, dated 1988).

Key:
[1] = molecular target: T1, 5-lipoxygenase (LO) (Homo sapiens, UniProt P09917); assay: In vitro inhibition of 5-lipoxygenase (LO): leukotriene B4 from arachidonic acid in leukocyte homogenate, radioimmunoassay; format: biochemical; conditions: volunteers' blood, 5 μM arachidonic acid, 37°, 5 minutes, leukotriene B4 RIA
T1 construct: The leukocytes were homogenised and 5 μM arachidonic acid added; endogenous in cells; host or cells: leukocytes from blood of normal aspirin-free volunteers, separated from red cells and platelets by centrifugation, homogenised
T1 sequence (P09917 1-674): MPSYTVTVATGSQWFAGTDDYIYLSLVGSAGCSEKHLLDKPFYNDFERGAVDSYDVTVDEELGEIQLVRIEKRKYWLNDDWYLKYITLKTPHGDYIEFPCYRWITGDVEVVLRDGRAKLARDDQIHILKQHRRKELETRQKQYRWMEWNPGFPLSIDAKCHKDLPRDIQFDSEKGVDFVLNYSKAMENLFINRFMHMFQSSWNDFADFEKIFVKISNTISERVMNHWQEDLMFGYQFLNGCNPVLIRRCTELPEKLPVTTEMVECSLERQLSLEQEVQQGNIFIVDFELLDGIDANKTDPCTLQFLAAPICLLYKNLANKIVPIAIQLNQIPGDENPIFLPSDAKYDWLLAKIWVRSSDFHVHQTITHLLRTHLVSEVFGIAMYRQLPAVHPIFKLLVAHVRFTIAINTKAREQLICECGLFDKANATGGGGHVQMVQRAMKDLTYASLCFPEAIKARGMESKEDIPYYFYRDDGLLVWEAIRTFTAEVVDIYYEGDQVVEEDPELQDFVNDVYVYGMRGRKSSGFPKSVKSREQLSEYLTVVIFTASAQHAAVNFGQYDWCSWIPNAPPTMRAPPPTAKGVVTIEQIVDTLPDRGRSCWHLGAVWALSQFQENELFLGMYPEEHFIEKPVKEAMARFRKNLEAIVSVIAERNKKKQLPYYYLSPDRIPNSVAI
Description: (§1) In vitro inhibition of 5-lipoxygenase (LO) and Cyclooxygenase (CO)
(§2) Blood from normal aspirin-free volunteers was centrifuged to separate leukocytes from red cells and platelets. The leukocytes were homogenised and 5 μM arachidonic acid added, followed by incubation at 37° for 5 minutes. The reaction was stopped by boiling. Radioimmunoassay was conducted for leukotriene B4 (an LO product) and […] (a CO product). Results were calculated as IC50 μM activity against each enzyme and as listed below.

[2] = molecular target: T2, Cyclooxygenase (CO) (Homo sapiens, UniProt P23219); assay: In vitro inhibition of cyclooxygenase (CO): thromboxane release from arachidonic acid in leukocyte homogenate, radioimmunoassay; format: biochemical; conditions: volunteers' blood, 5 μM arachidonic acid, 37°, 5 minutes, thromboxane B4 RIA
T2 construct: The leukocytes were homogenised and 5 μM arachidonic acid added; endogenous in cells; host or cells: leukocytes from blood of normal aspirin-free volunteers, separated from red cells and platelets by centrifugation, homogenised
T2 sequence (P23219 24-599): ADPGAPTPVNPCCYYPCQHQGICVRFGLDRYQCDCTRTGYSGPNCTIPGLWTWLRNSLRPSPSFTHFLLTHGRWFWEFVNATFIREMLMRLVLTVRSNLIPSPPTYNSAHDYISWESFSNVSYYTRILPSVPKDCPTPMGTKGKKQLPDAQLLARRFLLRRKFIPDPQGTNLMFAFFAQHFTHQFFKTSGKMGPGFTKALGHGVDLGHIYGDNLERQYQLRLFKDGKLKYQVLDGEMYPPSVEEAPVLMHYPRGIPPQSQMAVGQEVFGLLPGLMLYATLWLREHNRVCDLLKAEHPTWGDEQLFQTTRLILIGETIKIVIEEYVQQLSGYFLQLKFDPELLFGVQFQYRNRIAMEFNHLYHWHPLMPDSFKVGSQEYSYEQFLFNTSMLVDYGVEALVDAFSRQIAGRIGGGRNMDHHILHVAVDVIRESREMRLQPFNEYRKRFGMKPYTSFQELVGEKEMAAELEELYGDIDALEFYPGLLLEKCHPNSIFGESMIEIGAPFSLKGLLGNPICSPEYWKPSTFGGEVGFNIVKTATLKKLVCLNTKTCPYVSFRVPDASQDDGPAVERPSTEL
Description: as §1, §2

IC50 [1]: < 0.1 µM
IC50 [2]: 3 µM
Substance: 3-Phenoxy-N-methylcinnamohydroxamic Acid [Example 1]
